Test results reported in patent publication US9017692B2, “Antimicrobial agent, bacterial strain, biosynthesis, and methods of use” (priority 2011, dated 2015).
≈ marks a conversion by molar mass, not a printed value. Read-outs that look alike come from different tables or passages of the source.

Assays:
KPN.674 = test: MIC, CLSI broth microdilution, Gram-negative clinical isolates; type: cell-based, Klebsiella pneumoniae; details: Klebsiella pneumoniae, read-out: Minimum inhibitory concentration (MIC)
Protocol: (§1) Plates were incubated at 35° C. for 24 h.
(§2) The activity of paenibacterin was also tested against clinical isolates of the following Gram-negative bacterial strains: four strains of the species Pseudomonas aeruginosa (PAE), three strains of the species Acinetobacter baumannii (ABA), two strains of the species Escherichia coli (ECO), and four strains of the species Klebsiella pneumoniae (KPN). Particularly, the strains of Gram-negative bacteria included polymyxin B-resistant (PMB-R) and polymyxin B-sensitive (PMB-S) strains of each above listed species. The MICs were determined using the above described CLSI broth microdilution method, in which the method was performed with both non-binding surface coated (NBS) and polystyrene (PS) 96-well plates (Tables 11 and 12, respectively). The MICs were generally lower in the NBS 96-well plates as compared to the PS 96-well plates.

KPN.2317 = test: as above; type: cell-based, Klebsiella pneumoniae; details: Klebsiella pneumoniae, read-out: Minimum inhibitory concentration (MIC)
Protocol: as §1, §2

PMB-R, KPN.2463 = test: as above; type: cell-based, Klebsiella pneumoniae
Protocol: as §1, §2

PMB-S, KPN.2461 = test: as above; type: cell-based, Klebsiella pneumoniae
Protocol: as §1, §2

ATCC 25922 ECO.35 = test: as above; type: cell-based, Escherichia coli; details: Escherichia coli, read-out: Minimum inhibitory concentration (MIC)
Protocol: as §1, §2

ECO.2276 = test: as above; type: cell-based, Escherichia coli; details: Escherichia coli, read-out: Minimum inhibitory concentration (MIC)
Protocol: as §1, §2

PAE.2281 = test: as above; type: cell-based, Pseudomonas aeruginosa; details: Pseudomonas aeruginosa, read-out: Minimum inhibitory concentration (MIC)
Protocol: as §1, §2

PAE.44 = test: as above; type: cell-based, Pseudomonas aeruginosa
Protocol: as §1, §2

PAE.2325 = test: as above; type: cell-based, Pseudomonas aeruginosa; details: Pseudomonas aeruginosa, read-out: Minimum inhibitory concentration (MIC)
Protocol: as §1, §2

PAE.999 = test: as above; type: cell-based, Pseudomonas aeruginosa; details: Pseudomonas aeruginosa, read-out: Minimum inhibitory concentration (MIC)
Protocol: as §1, §2

ABA.2315 = test: as above; type: cell-based, Acinetobacter baumannii
Protocol: as §1, §2

ABA.1570 = test: as above; type: cell-based, Acinetobacter baumannii; details: Acinetobacter baumannii, read-out: Minimum inhibitory concentration (MIC)
Protocol: as §1, §2

ABA.2232 = test: as above; type: cell-based, Acinetobacter baumannii; details: Acinetobacter baumannii, read-out: Minimum inhibitory concentration (MIC)
Protocol: as §1, §2

[1] = test system: DS-VRE ATCC 700802 EFS.807; test: microbe, parasite or virus in culture; details: Enterococcus faecalis, ATCC700802|VRE, read-out: Minimum inhibitory concentration (MIC)
Protocol: (§3) The activity of paenibacterin against several strains of Gram-positive and Gram-negative foodborne pathogens is summarized in Table 10. The data is reported as minimum inhibitory concentrations (MIC) as an average of three replicates for paenibacterin against the various listed bacterial strains. […] MICs were determined according to the CLSI broth microdilution method (see, Clinical and Laboratory Standards Institute (CLSI). 2009. Methods for dilution antimicrobial susceptibility tests for bacteria that grow aerobically; approved standard. […]. CLSI, Wayne, Pa.). Briefly, HPLC-purified paenibacterin was dissolved in methanol and diluted to appropriate concentration with cation-adjusted Mueller-Hinton II broth (Difco). Aliquots (25 μl) of serially-diluted paenibacterin was dispensed into wells of a 96-well plate; an equal amount of 1/10 diluted overnight bacterial culture was added to wells. Plates were incubated at 35° C. for 24 h. Cell growth after incubation was examined and determined using a microtiter plate reader at 600 nm. Concentration of paenibacterin is determined based on a molecular weight of 1604 Da.
(§4) The activity of paenibacterin was further tested against clinical isolates of the following Gram-positive bacteria: methicillin-sensitive Staphylococcus aureus (MSSA), methicillin-resistant S. aureus (MRSA), vancomycin-sensitive Enterococcus faecalis, vancomycin-resistant E. faecalis (VRE), Streptococcus pneumoniae, and laboratory derived daptomycin-resistant (DR) MSSA, MRSA, and VRE strains. The MICs were determined using the above described CLSI broth microdilution method, in which the method was performed with non-binding surface coated (NBS) 96-well plates.

MRSA ATCC 43300 SAU.399 = test: microbe, parasite or virus in culture; details: Staphylococcus aureus, ATCC43300|MRSA, read-out: Minimum inhibitory concentration (MIC)
Protocol: as §3, §4

MSSA ATCC 29213 SAU.42 = test: microbe, parasite or virus in culture; details: Staphylococcus aureus, ATCC29213|MSSA, read-out: Minimum inhibitory concentration (MIC)
Protocol: as §3, §4

[2] = test system: DR-VRE from EFS.807 EFS.2731; test: microbe, parasite or virus in culture; details: Enterococcus faecalis, VRE, read-out: Minimum inhibitory concentration (MIC)
Protocol: as §3, §4

[3] = test system: DR-MRSA from MW2 SP SAU.1616; test: microbe, parasite or virus in culture; details: Staphylococcus aureus, MRSA, read-out: Minimum inhibitory concentration (MIC)
Protocol: as §3, §4

[4] = test system: DR-MSSA from SAU.42 SAU.278; test: microbe, parasite or virus in culture; details: Staphylococcus aureus, MSSA, read-out: Minimum inhibitory concentration (MIC)
Protocol: as §3, §4

WT ATCC 29212 EFS.43 = test: microbe, parasite or virus in culture; details: Enterococcus faecalis, ATCC29212, read-out: Minimum inhibitory concentration (MIC)
Protocol: as §3, §4

WT ATCC 49619 SPN.31 = test: microbe, parasite or virus in culture; details: Streptococcus pneumoniae, ATCC49619, read-out: Minimum inhibitory concentration (MIC)
Protocol: as §3, §4

NC[C@H]1O[C@H](O[C@H]2[C@H](O)[C@@H](O[C@H]3O[C@H](CO)[C@@H](O)[C@H](N)[C@H]3O)[C@H](N)C[C@@H]2N)[C@H](N)C[C@@H]1O [tobramycin]
MIC (KPN.674; NBS 96-well plates): 8 µg/mL (≈ 17.1 µM)
MIC (KPN.674; PS 96-well plates): 8 µg/mL (≈ 17.1 µM)
MIC (KPN.2317; NBS 96-well plates): > 32 µg/mL
MIC (KPN.2317; PS 96-well plates): > 32 µg/mL
Minimum inhibitory concentration (MIC) (PMB-R, KPN.2463; KPN.2463, PS 96-well plates): 32 µg/mL (≈ 68.4 µM)
MIC (PMB-R, KPN.2463; Klebsiella pneumoniae, KPN.2463 (PMB-R), NBS 96-well plates, read-out: Minimum inhibitory concentration (MIC)): 32 µg/mL (≈ 68.4 µM)
Minimum inhibitory concentration (MIC) (PMB-S, KPN.2461; KPN.2461, PS 96-well plates): 32 µg/mL (≈ 68.4 µM)
MIC (PMB-S, KPN.2461; Klebsiella pneumoniae, KPN.2461 (PMB-S), NBS 96-well plates, read-out: Minimum inhibitory concentration (MIC)): 32 µg/mL (≈ 68.4 µM)
MIC (ATCC 25922 ECO.35; ATCC25922, ECO.35 (ATCC 25922), NBS 96-well plates): 1 µg/mL (≈ 2.14 µM)
MIC (ATCC 25922 ECO.35; ATCC25922, ECO.35, PS 96-well plates): 1 µg/mL (≈ 2.14 µM)
MIC (ECO.2276; NBS 96-well plates): 1 to 2 µg/mL (≈ 2.14 to 4.28 µM)
MIC (ECO.2276; PS 96-well plates): 2 µg/mL (≈ 4.28 µM)
MIC (PAE.2281; NBS 96-well plates): 1 to 2 µg/mL (≈ 2.14 to 4.28 µM)
MIC (PAE.2281; PS 96-well plates): 1 µg/mL (≈ 2.14 µM)
MIC (PAE.44; Pseudomonas aeruginosa, non-binding surface coated (NBS) 96-well plates, read-out: Minimum inhibitory concentration (MIC)): 0.5 µg/mL (≈ 1.07 µM)
Minimum inhibitory concentration (MIC) (PAE.44; polystyrene (PS) 96-well plates): 0.5 µg/mL (≈ 1.07 µM)
MIC (PAE.2325; NBS 96-well plates): > 32 µg/mL
MIC (PAE.2325; PS 96-well plates): > 32 µg/mL
MIC (PAE.999; NBS 96-well plates): 32 µg/mL (≈ 68.4 µM)
MIC (PAE.999; PS 96-well plates): > 32 µg/mL
MIC (ABA.2315; Acinetobacter baumannii, NBS 96-well plates, read-out: Minimum inhibitory concentration (MIC)): > 32 µg/mL
Minimum inhibitory concentration (MIC) (ABA.2315; PS 96-well plates): >32 µg/mL
MIC (ABA.1570; NBS 96-well plates): 32 µg/mL (≈ 68.4 µM)
MIC (ABA.1570; PS 96-well plates): 16 µg/mL (≈ 34.2 µM)
MIC (ABA.2232; NBS 96-well plates): 0.5 µg/mL (≈ 1.07 µM)
MIC (ABA.2232; PS 96-well plates): 1 µg/mL (≈ 2.14 µM)
MIC [1]: > 32 µg/mL
MIC (MRSA ATCC 43300 SAU.399): > 32 µg/mL
MIC (MSSA ATCC 29213 SAU.42): 0.5 µg/mL (≈ 1.07 µM)
MIC [2]: > 32 µg/mL
MIC [3]: 0.5 µg/mL (≈ 1.07 µM)
MIC [4]: 0.5 µg/mL (≈ 1.07 µM)
MIC (WT ATCC 29212 EFS.43): 8 µg/mL (≈ 17.1 µM)
MIC (WT ATCC 49619 SPN.31): 0.25 µg/mL (≈ 0.535 µM)
